Values of other authors as cited in US20240115593A1, “METHISOPRINOL COMPOSITIONS” (priority 2020, published 2024).

Details: water solution without additional 1-dimethylaminopropan-2-ol 4-acetamidobenzoate, stored at +20° C. to +2° C.

For Methisoprinol, the “time after which Methisoprinol crystallizes out” value is listed as 6 days.
